In patent US5843449A, “Proteins and novel peptides derived from autoantigen for use in immunotherapy of autoimmune diseases” (Akzo Nobel N.V., priority 1996, dated 1998):
Read-outs that look alike come from different tables or passages of the source. Residues, ends and D or L forms follow the SMILES beside them.

Key:
[1] = molecular target: T1, DR4Dw4 (DRB1*0401) HLA-DR molecules (Homo sapiens, UniProt P01903+P01911, A100K/A169T/F76Y/I96L/K127E/L162R/M171V/N62H/P40V/Q125Y/R42H/S133A/S149N/S66Y/V115G/V209L/W38E); experiment: HLA-DR peptide binding assay (competition with biotinylated marker peptide), DR4Dw4; conditions: pH = 5, 50 nM biotin-spacer-IHA(307-319)F marker peptide
T1 construct: endogenous in cells; host or cells: BSM, EBV-transformed B-cell line

[2] = molecular target: DR4Dw14 HLA-DR molecules; experiment: HLA-DR peptide binding assay (competition with biotinylated marker peptide), DR4Dw14; design: species or system human; conditions: pH = 5, 50 nM biotin-spacer-IHA(307-319)F marker peptide
[3] = tested on: PBMC from healthy donors; experiment: Proliferative responses of PBMC from healthy donors (3H-thymidine); type: cell-based, human; conditions: 10% autologous serum
Description: PBMC's from healthy donors carrying the DR4Dw4 (DRB1*0401) or the DR1 specificity were collected as a control.
(§1) PBMC obtained from heparinized venous peripheral blood were isolated by standard centrifugation on a Ficoll-Paque gradient. […] Cultures were incubated in a total volume of 210 μl for 7 days at 37° C. in a humidified atmosphere of 5% CO2. Cultures were pulsed during the last 18 hours with 0.25 μCi^3 H-thymidine.

[4] = tested on: PBMC from RA patients; experiment: Proliferative responses of PBMC from RA patients (3H-thymidine); type: cell-based, human; conditions: 10% autologous serum
Description: Peripheral blood mononuclear cells (PBMC) from patients who were diagnosed as suffering from RA according to the American Rheumatism Association (ARA) criteria (Arnett et al., Arthritis Rheum. 31:315, 1988) were collected.
as §1

`CC(C)[C@H](N)C(=O)NCC(=O)N[C@@H](Cc1ccc(O)cc1)C(=O)N[C@@H](CC(=O)O)C(=O)N[C@@H](CC(=O)O)C(=O)N[C@@H](CCC(N)=O)C(=O)N[C@@H](CCC(=O)O)C(=O)N[C@@H](CO)C(=O)N[C@H](C(=O)N[C@@H](CCCCN)C(=O)N[C@@H](CO)C(=O)N[C@@H](CCCCN)C(=O)N[C@H](C(=O)O)C(C)C)C(C)C` [Peptide 3] (H-VGYDDQESVKSKV-OH) showed an IC50 ([1]; DOT Blot, densitometer, read-out: ^R IC50, DR4Dw4, DOT Blot) of 230 nM, an IC50 ([1]; SDS-PAGE, visual inspection, read-out: ^R IC50, DR4Dw4, SDS-PAGE) of 1000 nM and an IC50 ([2]; DOT Blot, densitometer, read-out: ^R IC50, DR4Dw14, DOT Blot) of over 10 µM. The IC50 ([2]; SDS-PAGE, visual inspection, read-out: ^R IC50, DR4Dw14, SDS-PAGE) was at most 50 µM, the “Proliferative response, stimulation index (SI)” value ([3]; healthy donor 155-03 (NR), peptide 10 μg/ml) was under 2 and the “Proliferative response, stimulation index (SI)” value ([3]; healthy donor 155-03 (NR), peptide 100 μg/ml) was 1. The “Proliferative response, stimulation index (SI)” value ([3]; healthy donor 156-03 (NR), peptide 10 μg/ml) was 1, the “Proliferative response, stimulation index (SI)” value ([3]; healthy donor 156-03 (NR), peptide 100 μg/ml) was under 1 and the “Proliferative response, stimulation index (SI)” value ([3]; healthy donor 157-03 (NR), peptide 10 μg/ml) was 1. The “Proliferative response, stimulation index (SI)” value ([3]; healthy donor 157-03 (NR), peptide 100 μg/ml) was 1, the “Proliferative response, stimulation index (SI)” value ([3]; healthy donor 157-04 (R), peptide 10 μg/ml) was 1 and the “Proliferative response, stimulation index (SI)” value ([3]; healthy donor 168-03 (NR), peptide 10 μg/ml) was 1. For the same compound, the “Proliferative response, stimulation index (SI)” value ([3]; healthy donor 168-03 (NR), peptide 100 μg/ml) was 1, the “Proliferative response, stimulation index (SI)” value ([3]; healthy donor 168.02 (NR), peptide 10 μg/ml) was under 2 and the “Proliferative response, stimulation index (SI)” value ([3]; healthy donor 168.02 (NR), peptide 100 μg/ml) was under 2. The “Proliferative response, stimulation index (SI)” value ([3]; healthy donor 169-02 (NR), peptide 10 μg/ml) was 1, the “Proliferative response, stimulation index (SI)” value ([3]; healthy donor 169-02 (NR), peptide 100 μg/ml) was 1 and the “Proliferative response, stimulation index (SI)” value ([3]; healthy donor 230-01 (NR), peptide 10 μg/ml) was 1. The “Proliferative response, stimulation index (SI)” value ([3]; healthy donor 230-01 (NR), peptide 100 μg/ml) was 1, the “Proliferative response, stimulation index (SI)” value ([3]; healthy donor 235-0 (NR), peptide 10 μg/ml) was 1 and the “Proliferative response, stimulation index (SI)” value ([3]; healthy donor 235-0 (NR), peptide 100 μg/ml) was under 2. The “Proliferative response, stimulation index (SI)” value ([3]; healthy donor 235-01 (NR), peptide 10 μg/ml) was under 1, the “Proliferative response, stimulation index (SI)” value ([3]; healthy donor 235-01 (NR), peptide 100 μg/ml) was under 2 and the “Proliferative response, stimulation index (SI)” value ([3]; healthy donor 236-01 (NR), peptide 10 μg/ml) was 1. For the same compound, the “Proliferative response, stimulation index (SI)” value ([3]; healthy donor 236-01 (NR), peptide 100 μg/ml) was under 1, the “Proliferative response, stimulation index (SI)” value ([3]; healthy donor 237-0 (NR), peptide 10 μg/ml) was under 1 and the “Proliferative response, stimulation index (SI)” value ([3]; healthy donor 237-0 (NR), peptide 100 μg/ml) was 1. For the same compound, the “Proliferative response, stimulation index (SI)” value ([3]; healthy donor 237-01 (NR), peptide 10 μg/ml) was 1, the “Proliferative response, stimulation index (SI)” value ([3]; healthy donor 237-01 (NR), peptide 100 μg/ml) was 1 and the “Proliferative response, stimulation index (SI)” value ([3]; healthy donor 238-01 (NR), first line so labelled, peptide 10 μg/ml) was 1. For the same compound, the “Proliferative response, stimulation index (SI)” value ([3]; healthy donor 238-01 (NR), first line so labelled, peptide 100 μg/ml) was 1, the “Proliferative response, stimulation index (SI)” value ([3]; healthy donor 238-01 (NR), second line so labelled, peptide 10 μg/ml) was 1 and the “Proliferative response, stimulation index (SI)” value ([3]; healthy donor 238-01 (NR), second line so labelled, peptide 100 μg/ml) was 1. For the same compound, the “Proliferative response, stimulation index (SI)” value ([3]; healthy donor 241-0 (NR), peptide 10 μg/ml) was under 1, the “Proliferative response, stimulation index (SI)” value ([3]; healthy donor 241-0 (NR), peptide 100 μg/ml) was under 1 and the “Proliferative response, stimulation index (SI)” value ([3]; healthy donor 241-01 (R), peptide 10 μg/ml) was under 1. The “Proliferative response, stimulation index (SI)” value ([3]; healthy donor 241-01 (R), peptide 100 μg/ml) was 1, the “Proliferative response, stimulation index (SI)” value ([4]; RA patient 191-03 (HR), disease state IV, peptide 10 μg/l) was 1 and the “Proliferative response, stimulation index (SI)” value ([4]; RA patient 191-03 (HR), disease state IV, peptide 100 μg/l) was under 2. The “Proliferative response, stimulation index (SI)” value ([4]; RA patient 215-0 (HR), disease state III-IV, peptide 25 μg/l) was 3, the “Proliferative response, stimulation index (SI)” value ([4]; RA patient 215-0 (HR), disease state III-IV, peptide 100 μg/l) was 6 and the “Proliferative response, stimulation index (SI)” value ([4]; RA patient 240-0 (HR), disease state II-III, peptide 25 μg/l) was 2. The “Proliferative response, stimulation index (SI)” value ([4]; RA patient 240-0 (HR), disease state II-III, peptide 100 μg/l) was 6, the “Proliferative response, stimulation index (SI)” value ([4]; RA patient 242-0 (HR), disease state I, peptide 25 μg/l) was 9 and the “Proliferative response, stimulation index (SI)” value ([4]; RA patient 242-0 (HR), disease state I, peptide 100 μg/l) was 3. The “Proliferative response, stimulation index (SI)” value ([4]; RA patient 243-0 (R), disease state III, peptide 10 μg/l) was 1, the “Proliferative response, stimulation index (SI)” value ([4]; RA patient 243-0 (R), disease state III, peptide 100 μg/l) was 1 and the “Proliferative response, stimulation index (SI)” value ([4]; RA patient 247-0 (R), disease state III, peptide 10 μg/l) was 1. For the same compound, the “Proliferative response, stimulation index (SI)” value ([4]; RA patient 248-0 (R), disease state III, peptide 10 μg/l) was 1, the “Proliferative response, stimulation index (SI)” value ([4]; RA patient 248-0 (R), disease state III, peptide 100 μg/l) was 1 and the “Proliferative response, stimulation index (SI)” value ([4]; RA patient 272-0 (HR), disease state III-IV, peptide 10 μg/l) was under 1. For the same compound, the “Proliferative response, stimulation index (SI)” value ([4]; RA patient 272-0 (HR), disease state III-IV, peptide 100 μg/l) was under 1, the “Proliferative response, stimulation index (SI)” value ([4]; RA patient 273-0 (HR), disease state IV, peptide 10 μg/l) was 1 and the “Proliferative response, stimulation index (SI)” value ([4]; RA patient 273-0 (HR), disease state IV, peptide 100 μg/l) was 6. For the same compound, the “Proliferative response, stimulation index (SI)” value ([4]; RA patient 275-0 (HR), disease state III, peptide 10 μg/l) was 1, the “Proliferative response, stimulation index (SI)” value ([4]; RA patient 275-0 (HR), disease state III, peptide 100 μg/l) was 1 and the “Proliferative response, stimulation index (SI)” value ([4]; RA patient 276-0 (HR), disease state IV, burnt out, peptide 10 μg/l) was under 1. The “Proliferative response, stimulation index (SI)” value ([4]; RA patient 276-0 (HR), disease state IV, burnt out, peptide 100 μg/l) was 1, the “Proliferative response, stimulation index (SI)” value ([4]; RA patient 280-0 (HR), disease state IV, burnt out, peptide 10 μg/l) was 1 and the “Proliferative response, stimulation index (SI)” value ([4]; RA patient 280-0 (HR), disease state IV, burnt out, peptide 100 μg/l) was 1.
